What was measured:
Type in all cases: cell-based
[1] = target: T1, OR52B4 (Homo sapiens, UniProt Q8NGK2); test: Ca-imaging of OR52B4-transfected HEK293 cells; design: key: ▪: 18 olfactory receptors responded to 32 odorants in related with specific anosmia; conditions: individual odorant 200 μM, significant response p<0.05
T1 construct: specific primers, which amplify the complete open reading frame; expressed in transfected cells; host or cells: HEK293
T1 sequence (Q8NGK2 1-314): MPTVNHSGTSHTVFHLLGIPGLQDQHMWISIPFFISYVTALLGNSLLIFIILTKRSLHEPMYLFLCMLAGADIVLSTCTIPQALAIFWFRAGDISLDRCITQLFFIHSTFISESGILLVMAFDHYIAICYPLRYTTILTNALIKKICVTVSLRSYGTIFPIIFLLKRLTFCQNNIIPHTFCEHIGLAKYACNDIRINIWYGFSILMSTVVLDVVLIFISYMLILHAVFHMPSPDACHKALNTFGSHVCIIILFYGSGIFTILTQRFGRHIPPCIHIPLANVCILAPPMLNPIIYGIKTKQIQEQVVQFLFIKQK
Experimental: (§1) HEK293 cells were cultivated in Petri dishes (Ø35 mm) as previously described (Benbernou et al. 2007). We grow up HEK293 cells in culture medium containing standard DMEM with 10% heat-inactivated fetal bovine serum, 2 mM L-glutamine, 100 units/ml penicillin, and 100 units/ml streptomycin in a humidified atmosphere (37° C., 5% CO2). After 2-3 days, the transfection process was carried out, whereby the cell culture was 70-80% confluent. The calciumphosphate method was applied to transfect DNA plasmid transiently in HEK293 cells in case of Ca-imaging method.
(§2) Calcium cations and phosphate anions created crystal precipitations coupled with DNA which could invade into the cells through endocytosis. Cells were transiently transfected with plasmid DNA which consists of pCI expression vector and PCR-amplified full-length cDNA of olfactory receptors candidates, and also Gα15, RTP1, Myr-Ric8A, HSC70, and m-Cherry as cofactors. The precipitation could be created after 15-20 min, with dropping the transfection solution on HEK293 cells. Before measuring by Ca-imaging cells were incubated 48-60 hours at 370 C, 5% CO2. Cationic liposome-mediated transfection method was applied to transfect DNA plasmid transiently in HANA3A cells in case of CRE-Luciferase and CRE-SEAP assays.
(§3) Calcium imaging of the transfected HEK293 cells was done by using chambers determinate an inverted microscope (Olympus; IX70) using a 10× objective (CPIanFL N Olympus). Fluorescence emission was determined every 4 s by using a CCD camera (Charge Coupled Device, C9100 Hamamatsu). The capillary tube which was responsible to supply odorants was generated closely above the cells. The columns filled with odorants, DMSO and ATP. Odorants were manually monitored to drop each 4-5 s to transfected cells. Solutions with drop wise form spread on HEK293 cells in 35 mm dishes.
In experiments, Fura-2 Acetoxymethylester (Fura-2/AM) was applied. The non-polar Fura2/AM is fluorescent but not yet calcium-sensitive. Once diffuses into cell plasma, Fura-2/AM is hydrolyzed to Fura-2 which is calcium-sensitive and functions as Ca2+ chelator. Regardless of the presence of calcium, Fura-2 emits at the wavelength of 510 nm. […] According to this feature, the analysis of 340/380 nm excitation ratio for Fura-2 allows to quantify intracellular calcium levels. […]
(§4) Ringer's solution was used for washing cells between measuring by two different odorants. Positive response was determined by the timing of the response, the strength of the response (more than twofold higher than the noise amplitude of the baseline), and the shape of the response curve (sharp rise in curve with gradual recovery). […]

[2] = target: T2, OR4E2 (Homo sapiens, UniProt Q8NGC2); test: Ca-imaging of OR4E2-transfected HEK293 cells; design: key: ▪: 18 olfactory receptors responded to 32 odorants in related with specific anosmia; conditions: individual odorant 200 μM, significant response p<0.05
T2 construct: specific primers, which amplify the complete open reading frame; expressed in transfected cells; host or cells: HEK293
T2 sequence (Q8NGC2 1-313): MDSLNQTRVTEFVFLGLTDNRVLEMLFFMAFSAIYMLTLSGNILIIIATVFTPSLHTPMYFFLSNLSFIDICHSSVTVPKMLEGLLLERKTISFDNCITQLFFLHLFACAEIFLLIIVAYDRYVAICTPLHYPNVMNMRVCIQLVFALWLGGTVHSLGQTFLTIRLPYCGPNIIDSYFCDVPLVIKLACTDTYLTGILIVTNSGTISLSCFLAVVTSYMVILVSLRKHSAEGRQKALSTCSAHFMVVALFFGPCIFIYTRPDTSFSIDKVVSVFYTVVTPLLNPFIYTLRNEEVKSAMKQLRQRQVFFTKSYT
Experimental: as §1
as §2, with “Cationic liposome-mediated transfection method was applied to transfect DNA plasmid transiently in HANA3A cells in case of CRE-Luciferase and CRE-SEAP assays.” left out
(§5) Calcium imaging of the transfected HEK293 cells was done by using chambers determinate an inverted microscope (Olympus; IX70) using a 10× objective (CPIanFL N Olympus). Fluorescence emission was determined every 4 s by using a CCD camera (Charge Coupled Device, C9100 Hamamatsu). […] Odorants were manually monitored to drop each 4-5 s to transfected cells. […]
(§6) In experiments, Fura-2 Acetoxymethylester (Fura-2/AM) was applied. […] According to this feature, the analysis of 340/380 nm excitation ratio for Fura-2 allows to quantify intracellular calcium levels. […]
as §4

[3] = target: T3, OR4K2 (Homo sapiens, UniProt Q8NGD2); test: Ca-imaging of OR4K2-transfected HEK293 cells; design: key to OR4K2 responded to odorant: ▪: 18 olfactory receptors responded to 32 odorants in related with specific anosmia; conditions: HEK293 cells, individual odorant 200 μM, significant response p<0.05
T3 construct: specific primers, which amplify the complete open reading frame; expressed in transfected cells; host or cells: HEK293
T3 sequence (Q8NGD2 1-314): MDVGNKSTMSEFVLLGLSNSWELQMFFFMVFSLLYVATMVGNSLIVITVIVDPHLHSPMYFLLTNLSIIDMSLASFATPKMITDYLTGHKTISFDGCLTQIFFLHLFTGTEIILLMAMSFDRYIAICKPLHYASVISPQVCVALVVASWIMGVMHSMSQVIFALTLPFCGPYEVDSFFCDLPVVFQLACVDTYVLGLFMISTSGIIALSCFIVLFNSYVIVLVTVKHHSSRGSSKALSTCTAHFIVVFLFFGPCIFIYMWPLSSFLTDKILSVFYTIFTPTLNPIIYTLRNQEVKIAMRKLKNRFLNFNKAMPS
Experimental: as §1, §2, §3
In experiments, Fura-2 Acetoxymethylester (Fura-2/AM) was applied. The non-polar Fura2/AM is fluorescent but not yet calcium-sensitive. Once diffuses into cell plasma, Fura-2/AM is hydrolyzed to Fura-2 which is calcium-sensitive and functions as Ca2+ chelator. Regardless of the presence of calcium, Fura-2 emits at the wavelength of 510 nm. Once Fura-2 binds to free intracellular Ca2+ in cell plasma, its ratio of excitation at wavelengths of 340 nm and 380 nm is changed and correlated to the amount of intracellular Ca2+. According to this feature, the analysis of 340/380 nm excitation ratio for Fura-2 allows to quantify intracellular calcium levels.
In preparation for Ca-imaging measurements, transfected HEK293 cells were added 3 it Fura2/AM (3 μM) and incubated 30-45 min at 370 C, 5% CO2. After this step, experiments were carried out in a dark condition (Fura-2 is light-sensitive). After the incubation, medium of cell culture was replaced with 2 ml Ringer's solution.
Odorants were freshly prepared with DMSO as 1 M stocks solutions. Six mixtures (200 μM each chemical) were applied to cells sequentially (20 s each mixture/30 s Ringer). Those ORs tested with single odorants that had generated a response to odorant mixture group previously. Odorants were prepared in 100-200 μM concentration.
as §4

[4] = target: T4, OR12D2 (Homo sapiens, UniProt P58182); test: Ca-imaging of OR12D2-transfected HEK293 cells; design: key: ▪: 18 olfactory receptors responded to 32 odorants in related with specific anosmia; conditions: individual odorant 200 μM, significant response p<0.05
T4 construct: specific primers, which amplify the complete open reading frame; expressed in transfected cells; host or cells: HEK293
T4 sequence (P58182 1-307): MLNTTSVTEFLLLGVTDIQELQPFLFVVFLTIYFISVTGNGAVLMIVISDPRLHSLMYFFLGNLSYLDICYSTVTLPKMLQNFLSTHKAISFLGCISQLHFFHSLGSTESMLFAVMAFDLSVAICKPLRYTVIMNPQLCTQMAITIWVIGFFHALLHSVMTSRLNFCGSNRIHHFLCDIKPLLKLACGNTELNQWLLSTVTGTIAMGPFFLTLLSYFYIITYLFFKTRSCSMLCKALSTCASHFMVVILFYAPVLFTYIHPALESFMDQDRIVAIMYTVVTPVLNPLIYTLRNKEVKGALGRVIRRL
Experimental: In preparation for Ca-imaging measurements, transfected HEK293 cells were added 3 it Fura2/AM (3 μM) and incubated 30-45 min at 370 C, 5% CO2. After this step, experiments were carried out in a dark condition (Fura-2 is light-sensitive). […]

[5] = target: T5, OR4K5 (Homo sapiens, UniProt Q8NGD3); test: Ca-imaging of OR4K5-transfected HEK293 cells; design: key to OR4K5 responded to odorant: ▪: 18 olfactory receptors responded to 32 odorants in related with specific anosmia; conditions: HEK293 cells, individual odorant 200 μM, significant response p<0.05
T5 construct: specific primers, which amplify the complete open reading frame; expressed in transfected cells; host or cells: HEK293
T5 sequence (Q8NGD3 1-323): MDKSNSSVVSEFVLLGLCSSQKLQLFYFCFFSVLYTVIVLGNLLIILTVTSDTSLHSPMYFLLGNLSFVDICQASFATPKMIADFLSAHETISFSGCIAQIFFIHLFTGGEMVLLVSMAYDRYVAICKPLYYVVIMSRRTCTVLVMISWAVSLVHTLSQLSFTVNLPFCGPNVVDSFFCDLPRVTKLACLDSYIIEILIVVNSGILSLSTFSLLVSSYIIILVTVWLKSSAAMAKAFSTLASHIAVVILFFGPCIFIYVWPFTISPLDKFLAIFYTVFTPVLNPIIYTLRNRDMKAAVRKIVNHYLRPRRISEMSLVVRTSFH
Experimental: as §1
as §2, with “Cationic liposome-mediated transfection method was applied to transfect DNA plasmid transiently in HANA3A cells in case of CRE-Luciferase and CRE-SEAP assays.” left out
as §5, §6, §4

[6] = target: T6, OR4P4 (Homo sapiens, UniProt Q8NGL7); test: Ca-imaging of OR4P4-transfected HEK293 cells; design: key to OR4P4 responded to odorant: ▪: 18 olfactory receptors responded to 32 odorants in related with specific anosmia; conditions: for OR4P4 responded to odorant: HEK293 cells, individual odorant 200 μM, significant response p<0.05
T6 construct: specific primers, which amplify the complete open reading frame; expressed in transfected cells; host or cells: HEK293
T6 sequence (Q8NGL7 1-312): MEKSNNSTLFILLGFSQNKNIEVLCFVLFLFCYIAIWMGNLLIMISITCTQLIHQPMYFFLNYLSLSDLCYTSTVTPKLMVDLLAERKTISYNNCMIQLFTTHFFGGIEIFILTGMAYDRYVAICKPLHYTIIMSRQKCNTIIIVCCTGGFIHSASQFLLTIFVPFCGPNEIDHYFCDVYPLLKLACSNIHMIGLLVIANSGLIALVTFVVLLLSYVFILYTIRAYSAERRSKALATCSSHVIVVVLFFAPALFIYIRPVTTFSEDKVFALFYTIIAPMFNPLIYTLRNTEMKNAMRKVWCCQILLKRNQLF
Experimental: as §1
as §2, with “Cationic liposome-mediated transfection method was applied to transfect DNA plasmid transiently in HANA3A cells in case of CRE-Luciferase and CRE-SEAP assays.” left out
as §5, §6, §4

Compound: C=CC(=O)CCCCC [1-Octan-3-One, 1-Octen-3-one]
- OR52B4 responded to odorant [1]: ▪

Compound: COc1c(Cl)cc(Cl)cc1Cl [2-4-6 trichoroanisole, 2-4-6-Trichloroanisole]
- OR4E2 responded to odorant [2]: ▪
- OR52B4 responded to odorant [1]: ▪

Compound: O=CCCc1ccccc1 [3-phenyl propyl aldehyde, 3-Phenylpropionaldehyde]
- OR4K2 responded to odorant [3]: ▪
- OR4E2 responded to odorant [2]: ▪

Compound: CC(=O)O [Acetic acid]
- OR12D2 responded to odorant [4]: ▪

Compound: CO[C@]1(C)CC[C@@]23C[C@@H]1C(C)(C)[C@@H]2CC[C@H]3C [Cedramber]
- OR4K5 responded to odorant [5]: ▪

Compound: CC1CCCC2(C)CCCCC12O (stereo not shown) [Geosmin]
- OR52B4 responded to odorant [1]: ▪

Compound: CC(C)=CCC/C(C)=C/CO [Graniol, Geraniol]
- OR4E2 responded to odorant [2]: ▪

Compound: CC(C)C=O [Isobutyr aldehyde, Isobutyraldehyde]
- OR4K2 responded to odorant [3]: ▪

Compound: CC(C)CC(=O)O [Isovaleric acid]
- OR12D2 responded to odorant [4]: ▪

Compound: CCCCCC(=O)O [N-Hexanoic acid, NHexanoic acid]
- OR4P4 responded to odorant [6]: ▪

Compound: CCC(=O)O [Propionic acid]
- OR12D2 responded to odorant [4]: ▪

Compound: CC/C(=C\CC1CC=C(C)C1(C)C)CO (stereo not shown) [Sandranol]
- OR52B4 responded to odorant [1]: ▪

Compound: Globalide
- OR4P4 responded to odorant [6]: ▪
- Response of OR4P4 to odorant, in words ([6]; single odorants 200 μM): responded

From US9939427B2, “Method for evaluating the scent performance of perfumes or perfume mixtures” (Symrise AG, priority 2013, dated 2018)
